This note sets out measurements from US7825151B2, “Hexahydro-cyclooctyl pyrazole cannabinoid modulators” (priority 2005, dated 2010).

Read-outs that look alike come from different tables or passages of the source.

The target in assay [1] is T1, human CB1 receptor (Homo sapiens, UniProt P21554).
T1 construct: expressed in transfected cells; host or cells: SK-N-MC cells, stably transfected with pcDNA3 CB-1 (human)
Description: Functional cell-based CRE β-gal assay, CB1 (adenylate cyclase activity). From the text: (§1) The CB1 and CB2 receptors are G-protein coupled receptors (GPCR), which influence cell function via the Gi-protein. These receptors modulate the activity of intracellular adenylate cyclase, which in turn produces the intracellular signal messenger cyclic-AMP (cAMP).
(§2) At baseline, or during non-ligand bound conditions, these receptors are constitutively active and tonically suppress adenylate cyclase activity. The binding of an agonist causes further receptor activation and produces additional suppression of adenylate cyclase activity. The binding of an inverse agonist inhibits the constitutive activity of the receptors and results in an increase in adenylate cyclase activity.
(§3) By monitoring intracellular adenylate cyclase activity, the ability of compounds to act as agonists or inverse agonists can be determined.
(§4) Test compounds were evaluated in SK-N-MC cells which, using standard transfection procedures, were stably transfected with human cDNA for pcDNA3-CRE β-gal and pcDNA3 CB1 receptor (human) or pcDNA3 CB2 receptor (human). By expressing CRE β-gal, the cells produced β-galactosidase in response to CRE promoter activation by cAMP. Cells expressing CRE β-gal and either the human CB1 or CB2 receptor will produce less β-galactosidase when treated with a CB1/CB2 agonist and will produce more β-galactosidase when treated with a CB1/CB2 inverse agonist.
(§5) The cells were grown in 96-well plates under standard cell culture conditions at 37° C. in a 5% CO2 atmosphere. After 3 days, the media was removed and a test compound in media (wherein the media was supplemented with 2 mM L-glutamine, […] sodium pyruvate, 0.1% low fatty acid FBS (fetal bovine serum) and antibiotics) was added to the cell. The plates were incubated for 30 minutes at 37° C. and the plate cells were then treated with forskolin over a 4-6 hour period, then washed and lysed. The β-galactosidase activity was quantitated using commercially available kit reagents (Promega Corp. Madison, Wis.) and a Vmax Plate Reader (Molecular Devices, Inc).
(§6) The change in β-galactosidase activity was determined by setting a vehicle treated cell's activity value at 100% and expressing the β-galactosidase activity measured in a corresponding compound treated cell as a percent of the vehicle treated cell activity.
The EC50 value for functional activity for compounds tested was calculated by linear regression and was obtained from studies in which varying compound concentrations were used. Data provided for certain compounds is represented by percent change (%) in functional activity at a single test concentration: ^(1)10 μM and ^(2)1 μM.

Assay [2] deals with T2, CB2 receptor (Homo sapiens, UniProt P34972).
T2 construct: expressed in transfected cells; host or cells: SK-N-MC cells, stably transfected with pcDNA3 CB-2 (human)
Description: Functional cell-based CRE β-gal assay, CB2 (adenylate cyclase activity).
Source text: as §1, §2, §3, §4, §5
For cells expressing CRE β-gal and the CB2 receptor, CB2 agonists reduced β-galactosidase activity in a dose-dependent manner and CB2 inverse agonists increase β-galactosidase activity in a dose-dependent manner.
as §6
The EC50 value for functional activity for compounds tested was calculated by linear regression and was obtained from studies in which varying compound concentrations were used.
The value of 29% for Compound 5 represents change in functional activity and was obtained from a study in which one compound concentration was used.

For assay [3], the target named is T1, human CB1 receptor. Description: Binding assay for CB1 ([3H]-CP-55,940 displacement, SK-N-MC membranes). To be noted: for IC50: Cannabinoid CB1 Receptor Binding IC50, radioligand CP-55,940 0.2 nM, SK-N-MC membranes; for inhibition at 0.2 µM: test concentration 0.2 μM (footnote 3), read-out: CB1 receptor binding percent inhibition. Here is the method: (§7) The human CB1 and CB2 receptors were stably expressed in SK-N-MC cells transfected with pcDNA3 CB-1 (human) or pcDNA3 CB-2 (human). The cells were grown in T-180 cell culture flasks under standard cell culture conditions at 37° C. in a 5% CO2 atmosphere. The cells were harvested by trysinization and homogenized in a homogenization buffer (10 mM Tris, 0.2 mM MgCl2, 5 mM KCl, with protease inhibitors aprotinin, leupeptin, pepstatin A and bacitracin) and centrifuged (2000 g). The supernatant was then centrifuged in 2M sucrose (31,300 g) to produce a semi-purified membrane pellet. The pellet was resuspended in homogenization and stored at −80° C.
(§8) On the day of the assay, the pellet was thawed on ice and diluted in assay buffer (50 mM Tris-HCl, 5 mM MgCl2, 2.5 mM EDTA, 0.5 mg/mL fatty acid free bovine serum albumin, pH 7.5). The diluted membrane pellet was added with buffer, either a test compound or vehicle standard and the radioligand [H]^3+-CP-55,940 (0.2 nM) to the wells of a 96-well polypropylene plate. Non-specific binding was measured in wells containing WIN 55,212 (10 uM). The plate was covered and incubated for 90 minutes at 30° C. The contents were then aspirated onto a Packard Unifilter GF/C filter bottom plate prewet with 0.5% polyethyleneimine. The wells of the polypropylene plate were rinsed and aspirated seven times with a 0.9% saline-0.5% Tween 20 solution. The Unifilter plate was dried, scintillation cocktail was added to each well and the counts representing binding were quantitated in a TopCount scintillation counter.
(§9) For compounds tested, an IC50 binding value was obtained from percent inhibition studies in which various test concentrations were used. The binding value was calculated by linear regression.
(§10) For compounds without an IC50 binding value, the percent inhibition (%) was obtained at a test concentration of ^(1)10 μM, ^(2)1 μM, ^(3)0.2 μM, ^(4)0.003 μM, ^(5) represents an average value.

The target in assay [4] is T2, CB2 receptor. Description: Binding assay for CB2 ([3H]-CP-55,940 displacement, SK-N-MC membranes). Particulars: read-out: CB2 receptor binding percent inhibition. The method, then: as §7, §8, §9, §10
The mark [5] stands for this setting: test concentration 0.2 μM (footnote 3).

T1 sequence (P21554 whole entry): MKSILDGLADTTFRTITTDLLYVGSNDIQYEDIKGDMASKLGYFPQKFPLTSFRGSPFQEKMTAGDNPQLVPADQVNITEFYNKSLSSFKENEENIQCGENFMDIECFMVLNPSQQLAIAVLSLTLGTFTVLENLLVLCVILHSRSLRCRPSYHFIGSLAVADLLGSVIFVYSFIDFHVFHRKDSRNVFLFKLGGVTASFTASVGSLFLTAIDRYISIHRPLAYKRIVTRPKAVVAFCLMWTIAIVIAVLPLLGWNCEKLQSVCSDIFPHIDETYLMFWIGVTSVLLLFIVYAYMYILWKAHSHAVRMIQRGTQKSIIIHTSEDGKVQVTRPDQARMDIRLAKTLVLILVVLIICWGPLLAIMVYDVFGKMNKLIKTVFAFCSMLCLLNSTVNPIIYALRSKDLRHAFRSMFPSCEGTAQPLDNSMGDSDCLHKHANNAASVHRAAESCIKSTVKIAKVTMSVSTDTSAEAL
T2 sequence (P34972 whole entry): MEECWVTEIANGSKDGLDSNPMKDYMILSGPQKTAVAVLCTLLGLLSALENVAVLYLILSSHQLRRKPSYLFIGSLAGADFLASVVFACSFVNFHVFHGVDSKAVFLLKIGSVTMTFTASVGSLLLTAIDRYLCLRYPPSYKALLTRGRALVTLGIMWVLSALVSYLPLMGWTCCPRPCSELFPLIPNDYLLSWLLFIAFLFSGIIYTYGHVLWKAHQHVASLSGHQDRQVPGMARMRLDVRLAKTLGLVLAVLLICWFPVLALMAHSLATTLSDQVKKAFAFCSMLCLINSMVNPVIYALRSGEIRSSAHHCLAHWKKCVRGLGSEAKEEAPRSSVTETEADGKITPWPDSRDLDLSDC

For the compound `O=C(N[C@H](CO)c1ccccc1)c1n[nH]c2c1CCCCC[C@@H]2Cc1cccc(Cl)c1` (relative stereo) [Cpd 24, (9R*)-(3-chloro-benzyl)-4,5,6,7,8,9-hexahydro-1H-cyclooctapyrazole-3-carboxylic acid [(1S)-2-hydroxy-1-phenyl-ethyl]-amide], the figures for the EC50 in assay [1] and in assay [2] were greater than 5000 nM and 124 nM, respectively.

Regarding `O=C(N[C@H](CO)c1ccccc1)c1n[nH]c2c1CCCCC[C@H]2Cc1cccc(Cl)c1` (relative stereo) [Cpd 25, (9S*)-(3-chloro-benzyl)-4,5,6,7,8,9-hexahydro-1H-cyclooctapyrazole-3-carboxylic acid [(1S)-2-hydroxy-1-phenyl-ethyl]-amide], the values for the EC50 in assay [1] and in assay [2] were greater than 5000 nM and 14 nM, respectively.

With `COC[C@H](NC(=O)c1n[nH]c2c1CCCCC[C@H]2Cc1cccc(Cl)c1)c1ccccc1` (relative stereo) [Cpd 26, (9S*)-(3-chloro-benzyl)-4,5,6,7,8,9-hexahydro-1H-cyclooctapyrazole-3-carboxylic acid [(1R)-2-methoxy-1-phenyl-ethyl]-amide], the EC50 in assay [1] was determined as 70 nM; in assay [2], 5 nM.

`COC[C@H](NC(=O)c1n[nH]c2c1CCCCC[C@@H]2Cc1cccc(Cl)c1)c1ccccc1` (relative stereo) [Cpd 27, (9R*)-(3-chloro-benzyl)-4,5,6,7,8,9-hexahydro-1H-cyclooctapyrazole-3-carboxylic acid [(1R)-2-methoxy-1-phenyl-ethyl]-amide]: the EC50 in assay [1] was 43 nM; in assay [2] it was 26 nM.

In the case of `O=C(N[C@@H](CO)c1ccccc1)c1n[nH]c2c1CCCCCC2Cc1cccc(Cl)c1` (stereo in doubt) [Cpd 23, (9R*)-(3-chloro-benzyl)-4,5,6,7,8,9-hexahydro-1H-cyclooctapyrazole-3-carboxylic acid [(1R)-2-hydroxy-1-phenyl-ethyl]-amide], the half-maximal effective concentration (EC50) amounted to 88 nM in assay [1] (SK-N-MC cells, CRE β-gal, forskolin, agonist, read-out: CB1 Receptor Functional Agonist Activity EC50) and 11 nM in assay [2] (SK-N-MC cells, CRE β-gal, forskolin, agonist, read-out: CB2 Receptor Functional Agonist Activity EC50).

`CCOC(=O)C1(NC(=O)c2nn(C3CCCCC3)c3c2CCCCCC3)CC2CCC1C2` (stereo not shown) [Cpd 4, 2-[(1-cyclohexyl-4,5,6,7,8,9-hexahydro-1H-cyclooctapyrazole-3-carbonyl)-amino]-bicyclo[2.2.1]heptane-2-carboxylic acid ethyl ester] gave an IC50 in assay [3] of 60 nM. For the same compound, the inhibition at 0.003 µM in assay [4] came out at 74%. Further, the “CB1 receptor percent change in functional activity” value in assay [1] (single test concentration 1 μM (footnote 2)) was “^(2)−71%”.

As to `O=C(NNc1ccc(Cl)cc1Cl)c1nn(-c2ccc(Cl)cc2Cl)c2c1CCCCC/C2=C\c1ccc(F)cc1` [Cpd 11, (9E)-1-(2,4-dichloro-phenyl)-9-(4-fluoro-benzylidene)-4,5,6,7,8,9-hexahydro-1H-cyclooctapyrazole-3-carboxylic acid N'-(2,4-dichloro-phenyl)-hydrazide], the inhibition at 0.2 µM in assay [3] was determined as 56%; in assay [4] (setting [5]), 30%.

As for `C[C@@H](NC(=O)c1nn(-c2ccc(Cl)cc2Cl)c2c1CCCCC/C2=C\c1ccc(F)cc1)c1ccccc1` [Cpd 12, (9E)-1-(2,4-dichloro-phenyl)-9-(4-fluoro-benzylidene)-4,5,6,7,8,9-hexahydro-1H-cyclooctapyrazole-3-carboxylic acid [(1R)-1-phenyl-ethyl]-amide], in assay [3], the 50% inhibitory concentration (IC50) was 8 nM and the inhibition at 0.2 µM came to 89%. Moreover, in assay [4], the inhibition at 0.2 µM was determined as 18%. The compound also came in with an EC50 in assay [1] of 10 nM.

For the compound `C[C@@H](NC(=O)c1nn(-c2ccc(Cl)cc2Cl)c2c1CCCCC/C2=C\c1ccc(F)cc1)c1ccccn1` [Cpd 13, (9E)-1-(2,4-dichloro-phenyl)-9-(4-fluoro-benzylidene)-4,5,6,7,8,9-hexahydro-1H-cyclooctapyrazole-3-carboxylic acid [(1R)-1-pyridin-2-yl-ethyl]-amide], in assay [3], the half-maximal inhibitory concentration (IC50) came to 8 nM and the inhibition at 0.2 µM amounted to 90%. Besides, in assay [4], the inhibition at 0.2 µM was found to be 11%. This compound displayed an EC50 in assay [1] of 2 nM.

As to `O=C(c1nn(-c2ccc(Cl)cc2Cl)c2c1CCCCC/C2=C\c1ccc(F)cc1)N1CCCCC1` [Cpd 14, (9E)-[1-(2,4-dichloro-phenyl)-9-(4-fluoro-benzylidene)-4,5,6,7,8,9-hexahydro-1H-cyclooctapyrazol-3-yl]-piperidin-1-yl-methanone], the inhibition at 0.2 µM stood at 50% in assay [3] and 28% in assay [4] (setting [5]).

With `C[C@@H](NC(=O)c1nn(-c2ccc(Cl)cc2Cl)c2c1CCCCC/C2=C\c1ccc(F)cc1)C1CCCCC1` [Cpd 17, (9E)-1-(2,4-dichloro-phenyl)-9-(4-fluoro-benzylidene)-4,5,6,7,8,9-hexahydro-1H-cyclooctapyrazole-3-carboxylic acid [(1R)-1-cyclohexyl-ethyl]-amide], in assay [3], the IC50 worked out at 10 nM and the inhibition at 0.2 µM was found to be 86%. In assay [4], the inhibition at 0.2 µM was 25%. The compound also registered an EC50 in assay [1] of 40 nM.

In assay [3], `O=C(NN1CC2CCCC2C1)c1nn(-c2ccc(Cl)cc2Cl)c2c1CCCCC/C2=C\c1ccc(F)cc1` (stereo not shown) [Cpd 18, (9E)-1-(2,4-dichloro-phenyl)-9-(4-fluoro-benzylidene)-4,5,6,7,8,9-hexahydro-1H-cyclooctapyrazole-3-carboxylic acid (hexahydro-cyclopenta[c]pyrrol-2-yl)-amide] returned an IC50 of 50 nM. In assay [1], this compound gave an EC50 of 20 nM.

For the compound `COc1ccc([C@H](C)NS(=O)(=O)/C=C/c2n[nH]c3c2CCCCCC3Cc2cccc(Cl)c2)cc1` (stereo partly drawn) [Cpd 20, (2E)-[9-(3-chloro-benzyl)-4,5,6,7,8,9-hexahydro-1H-cyclooctapyrazol-3-yl]-ethenesulfonic acid [(1S)-1-(4-methoxy-phenyl)-ethyl]-amide], the EC50 in assay [1] was greater than 5000 nM; in assay [2], no less than 5000 nM.

Take `C[C@H](NS(=O)(=O)/C=C/c1n[nH]c2c1CCCCCC2Cc1cccc(Cl)c1)c1ccccc1` (stereo partly drawn) [Cpd 21, (2E)-[9-(3-chloro-benzyl)-4,5,6,7,8,9-hexahydro-1H-cyclooctapyrazol-3-yl]-ethenesulfonic acid [(1S)-1-phenyl-ethyl]-amide]: the values for the half-maximal effective concentration (EC50) in assay [1] and in assay [2] were greater than 5000 nM and 347 nM, respectively.

On to `O=C(NC(CO)c1ccccc1)c1n[nH]c2c1CCCCCC2Cc1cccc(Cl)c1` [Cpd 22, (9S*)-(3-chloro-benzyl)-4,5,6,7,8,9-hexahydro-1H-cyclooctapyrazole-3-carboxylic acid [(1R)-2-hydroxy-1-phenyl-ethyl]-amide], for which the EC50 in assay [1] was 114 nM; in assay [2], 3 nM.
